Test [1] concerns Growth Hormone secretion. The test can be described thus: Growth Hormone secretion in female mice after subcutaneous GRF analog. It is filed as in vivo. As to conditions: female CD-1 mice; 10 μg/mouse subcutaneous; plasma 10 minutes after injection. The text has this:
CD-1 mice (female, weighting from 20 to 25 g) were obtained from Charles River Inc. Animals were used according to a protocol of the Animal Care Committee along with the principles of the Guide for the Care and Use of Experimental Animals of the Canadian Council on Animal Care. The animals were maintained on standard laboratory chow under a 12:12 light:dark cycle. They were kept in groups of 4 mice per cage.
At the day of the experiment, mice received a subcutaneous injection of GRF analog (10 μg/mouse dissolved in 20 mM sodium acetate (AcONa)+5% mannitol at pH 5). 10 minutes after injection, the mice were anesthezied with isolufrane. Blood samples (500 μl) were obtained by intra-cardiac puncture. Blood was placed into microtainer pre-treated with K3EDTA and immediately centrifuged at 13,000 RPM in a desktop centrifuge for 2 minutes. The plasma was collected and placed into a screwcap Eppendorf™ tube and quick frozen in liquid nitrogen. The samples were then kept at −80° C. until assayed. Determination of GH levels was performed as described below.
(§1) Rat and mouse plasma samples were vortexed carefully and centrifuged at 9,000 RPM for 2 min at 4° C. The dosage of GH levels was performed using the Rat/Mouse Growth Hormone ELISA kit from Millipore (Cat. # EZRMGH-45K). Sample supernatants were first diluted 20-fold with the GH ELISA assay buffer, and 10 μl of this dilution was added to the ELISA plate with 90 μl of GH EIA assay buffer. The remaining of the procedure was performed according to the manufacturer's instructions, and the data obtained were analyzed using GraphPad Prism™ software.
(§2) The GRF analogs described herein were tested for their ability to induce GH release in female mice and rats. […] The data are presented in Tables III (mice) and IV-V (rats).

Test [2] has as its system Growth Hormone secretion. The test can be described thus: Growth Hormone secretion in female rats after subcutaneous GRF analog. It is filed as in vivo. As to conditions: female Sprague-Dawley rats; 10 μg/rat subcutaneous; plasma 0-60 minutes.
Description: Sprague-Dawley rats (female, weighting from 250 to 300 g) were obtained from Charles River Inc. Animals were used according to a protocol of the Animal Care Committee along with the principles of the Guide for the Care and Use of Experimental Animals of the Canadian Council on Animal Care. The animals were maintained on standard laboratory chow under a 12:12 light:dark cycle. They were kept in groups of 4 rats per cage.
The animals were anesthetized with isoflurane 2.5%. A mid-section opening was made in the neck to expose the carotid artery. The carotid artery was canulated with polypropylene tubing (PE-50) to allow blood withdrawal. After surgical preparation, rats received a subcutaneous injection of GRF analog (10 μg/rat dissolved in 20 mM AcONa+5% mannitol at pH 5). For pharmacodynamics studies, blood samples (400 μL) were collected from 4 to 8 animals per group per time point. Blood samples (400 μl) were collected via the carotid catheter at 0, 10, 20, 30, 45 and 60 minutes after drug injection. Blood was placed into microtainer pre-treated with K3EDTA and immediately centrifuged at 13,000 RPM in a desktop centrifuge for 2 minutes. The plasma was collected and placed into a screw cap Eppendorf™ and quick frozen in liquid nitrogen. The samples were then kept at −80° C. until assayed. Determination of GH levels was performed as described below.
as §1, §2

Where a SMILES comes first, the peptide text is derived from it.

As for `CC[C@H](C)[C@H](NC(=O)[C@H](C)NC(=O)[C@H](CC(=O)O)NC(=O)[C@@H](C)NC(=O)[C@@H](N)Cc1ccc(O)cc1)C(=O)N[C@@H](Cc1ccccc1)C(=O)N[C@H](C(=O)N[C@@H](CC(=O)O)C(=O)N[C@@H](CO)C(=O)N[C@@H](Cc1ccc(O)cc1)C(=O)N[C@@H](CCCNC(=N)N)C(=O)N[C@@H](CCCCN)C(=O)N[C@H](C(=O)N[C@@H](CC(C)C)C(=O)N[C@@H](C)C(=O)N[C@@H](CCC(N)=O)C(=O)N[C@@H](CC(C)C)C(=O)N[C@@H](CCCCN)C(=O)N[C@@H](C)C(=O)N[C@@H](CCCNC(=N)N)C(=O)N[C@@H](CCC(N)=O)C(=O)N[C@@H](CC(=O)O)C(=O)N[C@@H](CC(C)C)C(=O)N[C@@H](CC(C)C)C(=O)N[C@@H](C)C(=O)N[C@@H](CCCNC(=N)N)C(=O)N[C@@H](C)C(=O)N[C@@H](C)C(=O)N[C@@H](CCCNC(=N)N)C(=O)N[C@@H](C)C(=O)N[C@@H](C)C(=O)N[C@@H](CCCNC(=N)N)C(N)=O)C(C)C)[C@@H](C)O` [SEQ ID NO: 30, Y-a-DAIFTDSYRKVLAQLKARQDLLARAARAAR-NH2] (HELM PEPTIDE1{Y.[dA].D.A.I.F.T.D.S.Y.R.K.V.L.A.Q.L.K.A.R.Q.D.L.L.A.R.A.A.R.A.A.R.[am]}$$$$V2.0), the “GH levels 10 min” value in test [1] turned out to be 493.3 ng/mL. Besides, in test [2], the “Mean AUC (GH Area Under the curve, GH concentration over time)” value came to 12282 and the “Mean Cmax (ng/ml) of Growth Hormone secretion” value (“Mean Cmax (ng/ml)” below) was found to be 664.1 ng/mL.

With `CC[C@H](C)[C@H](NC(=O)[C@H](C)NC(=O)[C@H](CC(=O)O)NC(=O)[C@@H](C)NC(=O)[C@@H](N)Cc1ccc(O)cc1)C(=O)N[C@@H](Cc1ccccc1)C(=O)N[C@H](C(=O)N[C@@H](CC(=O)O)C(=O)N[C@@H](CO)C(=O)N[C@@H](Cc1ccc(O)cc1)C(=O)N[C@@H](CCCNC(=N)N)C(=O)N[C@@H](CCCCN)C(=O)N[C@H](C(=O)N[C@@H](CC(C)C)C(=O)N[C@@H](C)C(=O)N[C@@H](CCC(N)=O)C(=O)N[C@@H](CC(C)C)C(=O)N[C@@H](CCCCN)C(=O)N[C@@H](CC(C)C)C(=O)N[C@@H](CCCNC(=N)N)C(=O)N[C@@H](CCC(N)=O)C(=O)N[C@@H](CC(=O)O)C(=O)N[C@H](C(=O)N[C@@H](CC(C)C)C(=O)N[C@@H](C)C(=O)N[C@@H](CCCNC(=N)N)C(=O)N[C@@H](C)C(=O)N[C@@H](C)C(=O)N[C@@H](CCCNC(=N)N)C(=O)N[C@@H](C)C(=O)N[C@@H](C)C(=O)N[C@@H](CCCNC(=N)N)C(N)=O)[C@@H](C)CC)C(C)C)[C@@H](C)O` [SEQ ID NO: 29, Y-a-DAIFTDSYRKVLAQLKLRQDILARAARAAR-NH2] (HELM PEPTIDE1{Y.[dA].D.A.I.F.T.D.S.Y.R.K.V.L.A.Q.L.K.L.R.Q.D.I.L.A.R.A.A.R.A.A.R.[am]}$$$$V2.0), the “GH levels 10 min” value in test [1] was 457.7 ng/mL. Besides, in test [2], the “Mean AUC (GH Area Under the curve, GH concentration over time)” value is 9442 and the “Mean Cmax (ng/ml)” value was determined as 466.7 ng/mL. For the molecule `CC[C@H](C)[C@H](NC(=O)[C@H](C)NC(=O)[C@H](CC(=O)O)NC(=O)[C@@H](C)NC(=O)[C@@H](N)Cc1ccc(O)cc1)C(=O)N[C@@H](Cc1ccccc1)C(=O)N[C@H](C(=O)N[C@@H](CC(=O)O)C(=O)N[C@@H](CO)C(=O)N[C@@H](Cc1ccc(O)cc1)C(=O)N[C@@H](CCCNC(=N)N)C(=O)N[C@@H](CCCCN)C(=O)N[C@H](C(=O)N[C@@H](CC(C)C)C(=O)N[C@@H](C)C(=O)N[C@@H](CCC(N)=O)C(=O)N[C@@H](CC(C)C)C(=O)N[C@@H](CCCCN)C(=O)N[C@@H](C)C(=O)N[C@@H](CCCNC(=N)N)C(=O)N[C@@H](CCC(N)=O)C(=O)N[C@@H](CC(=O)O)C(=O)N[C@H](C(=O)N[C@@H](CC(C)C)C(=O)NC(C)(C)C(=O)N[C@@H](CCCNC(=N)N)C(N)=O)[C@@H](C)CC)C(C)C)[C@@H](C)O` [SEQ ID NO: 22, Y-a-DAIFTDSYRKVLAQLKARQDIL-aib-R-NH2] (HELM PEPTIDE1{Y.[dA].D.A.I.F.T.D.S.Y.R.K.V.L.A.Q.L.K.A.R.Q.D.I.L.[Aib].R.[am]}$$$$V2.0), the “GH levels 10 min” value in test [1] stood at 249.1 ng/mL.

Turning to `CC[C@H](C)[C@H](NC(=O)[C@H](C)NC(=O)[C@H](CC(=O)O)NC(=O)[C@@H](C)NC(=O)[C@@H](N)Cc1ccc(O)cc1)C(=O)N[C@@H](Cc1ccccc1)C(=O)N[C@H](C(=O)N[C@@H](CC(=O)O)C(=O)N[C@@H](CO)C(=O)N[C@@H](Cc1ccc(O)cc1)C(=O)N[C@@H](CCCNC(=N)N)C(=O)N[C@@H](CCCCN)C(=O)N[C@H](C(=O)N[C@@H](CC(C)C)C(=O)N[C@@H](C)C(=O)N[C@@H](CCC(N)=O)C(=O)N[C@@H](CC(C)C)C(=O)N[C@@H](CCCN)C(=O)N[C@@H](C)C(=O)N[C@@H](CCCNC(=N)N)C(=O)N[C@@H](CCC(N)=O)C(=O)N[C@@H](CC(=O)O)C(=O)N[C@H](C(=O)N[C@@H](CC(C)C)C(=O)N[C@@H](CO)C(=O)N[C@H](CCCNC(=N)N)C(N)=O)[C@@H](C)CC)C(C)C)[C@@H](C)O` [SEQ ID NO: 23, Y-a-D-A-I-F-T-D-S-Y-R-K-V-L-A-Q-L-O-A-R-Q-D-I-L-S-r-NH2] (HELM PEPTIDE1{Y.[dA].D.A.I.F.T.D.S.Y.R.K.V.L.A.Q.L.[Orn].A.R.Q.D.I.L.S.[dR].[am]}$$$$V2.0), the “GH levels 10 min” value in test [1] amounted to 269.9 ng/mL.

As to `CC/C=C/CC(=O)N[C@@H](Cc1ccc(O)cc1)C(=O)N[C@@H](C)C(=O)N[C@@H](CC(=O)O)C(=O)N[C@@H](C)C(=O)N[C@H](C(=O)N[C@@H](Cc1ccccc1)C(=O)N[C@H](C(=O)N[C@@H](CC(=O)O)C(=O)N[C@@H](CO)C(=O)N[C@@H](Cc1ccc(O)cc1)C(=O)N[C@@H](CCCNC(=N)N)C(=O)N[C@@H](CCCCN)C(=O)N[C@H](C(=O)N[C@@H](CC(C)C)C(=O)N[C@@H](C)C(=O)N[C@@H](CCC(N)=O)C(=O)N[C@@H](CC(C)C)C(=O)N[C@@H](CCCN)C(=O)N[C@@H](C)C(=O)N[C@@H](CCCNC(=N)N)C(=O)N[C@@H](CCC(N)=O)C(=O)N[C@@H](CC(=O)O)C(=O)N[C@H](C(=O)N[C@@H](CC(C)C)C(=O)N[C@@H](CO)C(=O)N[C@H](CCCNC(=N)N)C(N)=O)[C@@H](C)CC)C(C)C)[C@@H](C)O)[C@@H](C)CC` [SEQ ID NO: 24, Trans-3-hexenoyl-Y-A-D-A-I-F-T-D-S-Y-R-K-V-L-A-Q-L-O-A-R-Q-D-I-L-S-r-NH2] (HELM PEPTIDE1{[CC/C=C/CC(=O)[*:2]].Y.A.D.A.I.F.T.D.S.Y.R.K.V.L.A.Q.L.[Orn].A.R.Q.D.I.L.S.[dR].[am]}$$$$V2.0), in test [1], the “GH levels 10 min” value amounted to 332.6 ng/mL.

With `CC[C@H](C)[C@H](NC(=O)[C@H](C)NC(=O)[C@H](CC(=O)O)NC(=O)[C@@H](C)NC(=O)[C@@H](N)Cc1ccc(O)cc1)C(=O)N[C@@H](Cc1ccccc1)C(=O)N[C@H](C(=O)N[C@@H](CC(=O)O)C(=O)N[C@@H](CO)C(=O)N[C@@H](Cc1ccc(O)cc1)C(=O)N[C@@H](CCCNC(=N)N)C(=O)N[C@@H](CCCCN)C(=O)N[C@H](C(=O)N[C@@H](CC(C)C)C(=O)N[C@@H](C)C(=O)N[C@@H](CCC(N)=O)C(=O)N[C@@H](CC(C)C)C(=O)N[C@@H](CCCCN)C(=O)N[C@@H](C)C(=O)N[C@@H](CCCNC(=N)N)C(=O)N[C@@H](CCC(N)=O)C(=O)N[C@@H](CC(=O)O)C(=O)N[C@@H](CC(C)C)C(=O)N[C@@H](CC(C)C)C(=O)N[C@@H](CO)C(=O)N[C@H](CCCNC(=N)N)C(N)=O)C(C)C)[C@@H](C)O` [SEQ ID NO: 25, Y-a-DAIFTDSYRKVLAQLKARQDLLS-r-NH2] (HELM PEPTIDE1{Y.[dA].D.A.I.F.T.D.S.Y.R.K.V.L.A.Q.L.K.A.R.Q.D.L.L.S.[dR].[am]}$$$$V2.0), the “GH levels 10 min” value in test [1] is 144.1 ng/mL. In the case of “H-YLDAIFTDSYRKVLAQLKARQDILARAARAAR-NH2 [SEQ ID NO: 35, YLDAIFTDSYRKVLAQLKARQDILARAARAAR-NH2]”, in test [2], the “Mean AUC (GH Area Under the curve, GH concentration over time)” value came to 9144 and the “Mean Cmax (ng/ml)” value came out at 376.9 ng/mL.
